Data reported in patent US6376517B1, “Pipecolic acid derivatives for vision and memory disorders” (GPI NIL Holdings, Inc., priority 1998, dated 2002).

Tests used:
[1] = test system: retinal ganglion cell axons; assay: Protection of retinal ganglion cell axons from degeneration following optic nerve transection (Table E); format: in vivo, rat; settings: 14 days after optic nerve transection; ± SEM
From the text: Efficacy of representative compounds from different immunophilin ligand series in protecting retinal ganglion cell axons from degeneration following optic nerve transection is set forth in Table E.

[2] = Clearance (Table E comments); format: in vitro ADME
[3] = test system: retinal ganglion cells and optic nerve axons; assay: Optic nerve transection vision loss model, 14 or 28 day treatment, sacrifice at 90 days (Example 2, Table A); format: in vivo, Sprague Dawley rats; settings: for Proximal optic nerve myclin basic protein Density, % recovery: ± SEM, % areal coverage of optic nerve cross section
From the text: All eyes and optic nerves stumps were removed.

[4] = Morris watermaze spatial learning and memory in aged rodents (Example 15); format: in vivo, C57BL/6N-Nia mice; settings: aged impaired mice, 10 mg/kg daily, retention testing after 3 weeks of dosing
From the text: The Morris watermaze is widely used for assessing spatial memory formation and retention in experimental animals. The test depends on the animal's ability to utilize spatial visual information in order to locate a submerged escape platform in a water tank. It is important that the tank itself be as devoid of specific visual features as possible—thus, it is always circular in shape, the sides are kept smooth and in uniform dull colors, and the water is rendered opaque with nontoxic watercolor pigment or powdered milk. This is to ensure that the animal navigates only by the use of more distant visual cues, or by the use of intra-maze cues specifically provided by the experimenter. The animals' path, speed, and swim time are tracked with a ceiling camera for later computerized analysis. Over the course of several successive trials, spatial learning can therefore be defined as a drop of distance swum, or time elapsed, from placement in the tank until escape onto the invisible platform. The procedure involved using three-month old (young) and 18-19 month old male C57BL/6N-Nia (aged) mice which habituated to the well known and conventional Morris watermaze during a 4 trials/day, 3-4 day visible platform training phase. […] Swim Distances (cm) were analyzed in a 7×5 ANOVA including Groups and Blocks (1-5) as factors in the analysis, treating Blocks as a repeated measure.

[5] = test system: retinal ganglion cells, optic nerve axons and myelin; assay: Retinal ischemia (intraocular pressure above arterial blood pressure), examined 28 days later; format: in vivo, adult rats
From the text: Retinal ganglion cells were retrogradely labeled in adult rats by bilateral injection of fluorogold in their lateral geniculate nuclei. Labeled ganglion cells in the normal rat retina appear as white profiles against the dark background (FIG. 1A). Complete retinal ischemia was produced by infusing normal saline solution into the retinal vitreous cavity of each eye until the intraocular pressure exceeded arterial blood pressure. 28 days after the ischemic episode extensive degeneration of retinal ganglion cell was evidenced by massive reduction in the density of fluorogold labeled cells (FIG. 1B).

retinal ganglion cells = assay: Optic nerve transection, 28 days treatment, sacrifice at 90 days (Example 13); format: in vivo, Sprague Dawley rats; settings: 10 mg/kg/day s.c. for 28 days, 90 days after transection
From the text: Transection of the mammalian optic nerve results in a brief period of abortive regeneration, but the majority of axotomized neurons die and the axons from many persisting ganglion cells die back beyond the optic nerve head.

FKBP12 = FKBP12 (Homo sapiens, UniProt P62942); assay: Ki Test Procedure: inhibition of peptidyl-prolyl isomerase (rotamase) activity, chymotrypsin-coupled assay; format: biochemical; settings: Table E comments
Chain of FKBP12 (P62942 whole entry, species assumed): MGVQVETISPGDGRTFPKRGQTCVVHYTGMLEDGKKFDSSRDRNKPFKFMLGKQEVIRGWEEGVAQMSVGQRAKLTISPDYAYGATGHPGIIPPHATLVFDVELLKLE
Method: The inhibition of the prolyl peptidyl cis-trans isomerase activity of FKBP may be measured as an indicator of this affinity.
The cis-trans isomerization of an alanine-proline bond in a model substrate, N-succinyl-Ala-Ala-Pro-Phe-p-nitroanilide, is monitored spectrophotometrically in a chymotrypsin-coupled assay, which releases para-nitroanilide from the trans form of the substrate. The inhibition of this reaction caused by the addition of different concentrations of inhibitor is determined, and the data is analyzed as a change in first-order rate constant as a function of inhibitor concentration to yield the apparent Ki values.
In a plastic cuvette are added 950 mL of ice cold assay buffer (25 mM HEPES, pH 7.8, 100 mM NaCl), 10 mL of FKBP (2.5 mM in 10 mM Tris-Cl pH 7.5, 100 mM NaCl, 1 mM dithiothreitol), 25 mL of chymotrypsin (50 mg/ml in 1 mM HCl) and 10 mL of test compound at various concentrations in dimethyl sulfoxide. The reaction is initiated by the addition of 5 mL of substrate (succinyl-Ala-Phe-Pro-Phe-para-nitroanilide, 5 mg/mL in 2.35 mM LiCl in trifluoroethanol).
The absorbance at 390 nm versus time is monitored for 90 seconds using a spectrophotometer and the rate constants are determined from the absorbance versus time data files.

O=C(SCCCc1ccccc1)[C@@H]1CCCN1C(=O)NC12CC3CC(CC(C3)C1)C2 [B]
RT97 + RGC axon density 14 days after On transection (% ON axons rescued) [1]: 100.0% ± 5.2% SEM

CCC(C)(C)C(=O)C(=O)N1CCCCC1C(=O)OC(CCc1ccccc1)CCc1ccccc1 (centres unmarked) [E]
Clearance [2]: 41.8 µL/min

CCC(C)(C)C(=O)C(=O)N1CCC[C@H]1C(=O)OCCCc1cccnc1 [GPI 1046]
RGC Counts ([3]; 14 days treatment, 10 mg/kg/day sc, 90 days after transection, mean density ± SEM of Fluoro-gold labeled RGC in 400 μm × 400 μm gridfields): 49 ± 5.3
Distal optic nerve shrinkage ([3]; 14 days treatment, cross sectional area compared to sham control): 33% shrinkage
Distal optic nerve myclin basic protein Density, loss ([3]; 14 days treatment, cross sectional area multiplied by myelin density): 47% loss
Proximal optic nerve myclin basic protein Density, % recovery ([3]; 14 days treatment): 1.6 ± 3.0 SEM % recovery
density of large, medium and small caliber optic nerve axons ([3]; 28 day treatment): significant increase
ON Axon density ([3]; 28 days treatment, 90 days after transection, RT97 labeled axons in 200 μm × 200 μm region, mean ± SEM): 1526 ± 120
Distal optic nerve, less shrinkage ([3]; 28 days treatment, cross sectional area compared to sham control): 56% less shrinkage*
Proximal optic nerve myclin basic protein Density, % recovery ([3]; 28 days treatment): 70 ± 6.3 SEM % recovery
spatial memory performance (Morris watermaze retention, swim distance) [4]: significantly enhanced spatial memory performance
protection of retinal ganglion cells (fluorogold labeled) after retinal ischemia ([5]; 10 mg/kg s.c. 1 hour prior to ischemia and 10 mg/kg/day for the next four days, 28 days after ischemia): noticeable protection of a large proportion of the vulnerable ganglion cell population
density of degenerating myelin figures after retinal ischemia ([5]; 28 days after 1 hour retinal ischemic episode): dramatically decreased the density of degenerating myelin figures
protection of optic nerve axons after retinal ischemia ([5]; 28 days after 1 hour retinal ischemic episode, toluidine blue staining): protected the majority of optic nerve axons from degeneration
ganglion cell population spared (retinal ganglion cells): 25%
preservation of axons in the proximal stump of the transected nerve (retinal ganglion cells; RT97 neurofilament): preserved the axons of virtually all protected neurons

C=C(C(=O)N1CCCC[C@H]1C(=O)O)C(C)(C)CC [G]
RT97 + RGC axon density 14 days after On transection (% ON axons rescued) [1]: 34.0% ± 4.8% SEM
Ki (FKBP12): > 10 µM

C=C(C(=O)N1CCCC[C@H]1C(N)=O)C(C)(C)CC [H]
RT97 + RGC axon density 14 days after On transection (% ON axons rescued) [1]: 30.3% ± 8.0% SEM

C=C(C(=O)N1CCC[C@H]1C(=O)O)C(C)(C)CC [L]
RT97 + RGC axon density 14 days after On transection (% ON axons rescued) [1]: 7.8% ± 3.0% SEM
Ki (FKBP12): > 7.74 µM
Clearance [2]: 5.2 µL/min

CCC(C)(C)C(=O)C(=O)N1CCC[C@H]1C(=O)SCCC(c1ccccc1)c1ccccc1 [M]
RT97 + RGC axon density 14 days after On transection (% ON axons rescued) [1]: −6.3% ± 3.9% SEM
